Experimental data taken from patent US11471558B2, “Polypeptide and hyaluronic acid coatings” (INSTITUT NATIONAL DE LA SANTE ET DE LA RECHERCHE MEDICALE …, priority 2016, dated 2022).

Assays:
S. aureus [1] = details: Adv. Funct. Mater. 2013, 23, 4801-4809; cited from earlier work
S. aureus [2] = test: Minimal inhibitory concentration of PAR in solution; format: cell-based; details: for times less active than PAR100 or PAR200 chains (from MICs in solution): per chain; for bacterial growth inhibition by PAR in solution: 1 μM
Method: Staphylococcus aureus (S. aureus, ATCC 25923) strains were used to assess the antibacterial properties of the test samples. Bacterial strain was cultured aerobically at 37° C. in a Mueller Hinton Broth (MHB) medium (Merck, Germany), pH 7.4. One colony was transferred to 10 mL of MHB medium and incubated at 37° C. for 20 h, to provide a final density of 10^6 CFU·mL^−1. To obtain bacteria in the mid logarithmic phase of growth, the absorbance at 620 nm of overnight culture was adjusted of 0.001.
In the following the inventors of the present invention wanted to further elucidate the underlying mechanism that confer to the coatings of the invention the strong inhibitory property on the surface and in the supernatant. As an example the (PAR30/HA)24 coating was further investigated. Accordingly, the minimal inhibitory concentration (MIC) of PAR in solution was determined using bacterial assay as described in Experimental Section. […] Finally for PAR at concentrations of 0.01 mg·mL^−1, inhibition of 100% was shown only for PAR30. Longer or shorter PAR chains (PAR10, PAR100 or PAR200) inhibits only partially (less than 40%) S. aureus growth. […] This reasoning is valid when PAR concentration values are expressed in mass (mg·mL^−1) thus it is related to the number of arginine monomers. However when the graph is plotted with concentrations in μM (and thus proportional in number of chains), which means that concentration is related to number of chains, different interpretation can be made. […] Moreover the MIC100 values obtained for PAR30, PAR100 or PAR200 ranges at very low concentrations (between 1 and 2 μM) which is remarkable when compared to well-known antimicrobial peptides (for example 30 μM for cateslytin with S. aureus, see Adv. Funct. Mater. 2013, 23, 4801-4809). PAR is thus a powerful candidate to fight against S. aureus.
FIG. 12: Graph with the Minimal inhibitory concentration (MIC100) of soluble PAR with 10, 30, 100 or 200 arginine residues. The Minimal inhibitory concentration (MIC100) leading to 100% inhibition of S. aureus were measured in solution. PAR with 10, 30, 100 or 200 arginine residues were tested.

[3] = concentrations up to 0.04 mg·mL−1

Substance | MIC with S. aureus (antimicrobial peptide, literature) (S. aureus [1]) [µM] | S. aureus growth inhibition by PAR in solution (S. aureus [2]; 0.03 mg·mL−1) | S. aureus growth inhibition by PAR in solution (S. aureus [2]; [3]) | times less active than PAR100 or PAR200 chains (from MICs in solution) (S. aureus [2]) [times] | S. aureus growth inhibition by PAR in solution (S. aureus [2]; 0.01 mg·mL−1) [%] | MIC90 (S. aureus [2]; PAR in solution, S. aureus) | bacterial growth inhibition by PAR in solution (S. aureus [2])
cateslytin | 30 | – | – | – | – | – | –
poly-L-arginine [PAR10] | – | total inhibition | totally inhibited | 10 | – | – | –
poly-L-arginine [PAR30] | – | total inhibition | totally inhibited | 2 | 100 | about 2 μM | –
poly-L-arginine [PAR100] | – | total inhibition | totally inhibited | – | – | – | totally inhibit
poly-L-arginine [PAR200] | – | about 45% | totally inhibited | – | – | – | totally inhibit
